Tests used:
[1] = target: T1, Lactococcus lactis heme-responsive transcription factor HrtR, SEQ ID NO: 1 (in E. coli MG1655, HrtR+ChuA+PhrtAB-luxCDABE) (Lactococcus cremoris, UniProt A2RIY0); test: Hemin response of E. coli MG1655 with HrtR+ChuA+PhrtAB-luxCDABE (luminescence); assay type: cell-based
T1 sequence (A2RIY0 1-189): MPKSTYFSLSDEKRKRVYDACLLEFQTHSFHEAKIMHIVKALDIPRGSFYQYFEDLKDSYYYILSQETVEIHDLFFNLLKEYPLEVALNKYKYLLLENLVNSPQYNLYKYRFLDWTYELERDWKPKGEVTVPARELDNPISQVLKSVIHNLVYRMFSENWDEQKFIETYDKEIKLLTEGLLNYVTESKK

[2] = target: T2, Lactococcus lactis heme-responsive transcription factor HrtR, SEQ ID NO: 1 (in E. coli MG1655, no ChuA) (Lactococcus cremoris, UniProt A2RIY0); test: Hemin response of E. coli MG1655 with HrtR and PhrtAB- or PL(HrtO)-luxCDABE without ChuA (luminescence); assay type: cell-based
T2 construct: PhrtAB- or PL(HrtO)-luxCDABE reporter
T2 sequence (A2RIY0 1-189): T1 sequence (A2RIY0 1-189)

| SMILES | time to detectable differences in luminescence ([1]; depending on the concentration of hemin used) [min] | response of gene circuit to extracellular hemin [2] | response concentration range ([1]; with ChuA) |
| --- | --- | --- | --- |
| C=CC1=C(C)c2cc3[nH]c(cc4nc(cc5[nH]c(cc1n2)c(C)c5CCC(=O)O)C(CCC(=O)O)=C4C)c(C)c3C=C.[Fe+3] [hemin] | 30 to 60 | insensitive |  |
| C=CC1=C(C)c2cc3[nH]c(cc4nc(cc5[nH]c(cc1n2)c(C)c5CCC(=O)O)C(CCC(=O)O)=C4C)c(C)c3C=C.[Fe+2] [heme] |  |  | sub-micromolar range |
